Results taken from US4684624A (priority 1985, dated 1987).

What was measured:
[1] = tested on: acute focal cerebral ischemia (MCA occlusion); parameters: species or system cat; settings: in vivo; for lived up to 7 days / mortality, 24-28 hours / mortality, 48-72 hours / mortality, less than 24 hours: ip
[2] = tested on: neurologic deficits secondary to cerebral ischemia; settings: man; cited from earlier work
[3] = tested on: ischemic neurologic deficit; settings: cited from earlier work
[4] = tested on: analgesic response; settings: mice; cited from earlier work

Row | Molecule | effect in prolonging survival [1] | lived up to 7 days [1] [%] | mortality, 24-28 hours [1] [%] | mortality, 48-72 hours [1] [%] | mortality, less than 24 hours [1] [%] | effect on neurologic deficits secondary to cerebral ischemia [2] | survival and neurologic function in several models of stroke ([3]; gerbils (Holaday and D'Amato)) | neurologic function and infarct size after temporary carotid occlusion ([3]; gerbils (Levy et al.)) | neurologic deficits produced by unilateral carotid ligation ([3]; gerbils, intraperitoneal (Hosobuchi et al.)) | analgesic potency [4]
1 | C=CCN1CC[C@]23c4c5ccc(O)c4O[C@H]2C(=O)CC[C@@]3(O)[C@H]1C5 [Naloxone, 17-allyl-4-5α-epoxy-3,14-dihydroxymorphinan-6-one] | prolonged survival | 31 | 15 | 0 | 54 | can reverse neurologic deficits | no beneficial effect | did not produce improved neurologic function or alter infarct size | can be reversed | –
2 | O=C1CC[C@@]2(O)[C@H]3Cc4ccc(O)c5c4[C@@]2(CCN3CC2CC2)[C@H]1O5 [Naltrexone] | prolonged survival | 40 | 10 | 10 | 40 | – | – | – | – | –
3 | CN1CC[C@]23c4c5ccc(O)c4O[C@H]2[C@@H](O)C=C[C@H]3[C@H]1C5 [morphine] | – | – | – | – | – | exacerbates them | – | – | – | –
4 | Dynorphin | – | – | – | – | – | – | – | – | – | little or no analgesic potency
